Test results published in publication PMC3242765, “Inhibitors of Alphavirus Entry and Replication Identified with a Stable Chikungunya Replicon Cell Line and Virus-Based Assays” (PLoS ONE, 2011).

System: SFV-Rluc
Conditions: not given

SMILES	SFV replication % left (surviving fraction, remaining percentage of SFV replication) [%]
CCOc1ccc(NC(C)=O)cc1 [PC-151]	80.6
CC(C)NCC(O)c1ccc(NS(C)(=O)=O)cc1.Cl (stereo not shown) [PC-191]	100.5
CC(C)(C)NC[C@H](O)COc1nsnc1N1CCOCC1.O=C(O)/C=C\C(=O)O [PC-225]	129.1
CC(C)NCC(O)COc1cccc2ccccc12.Cl (stereo not shown) [PC-174]	74.0
Oc1cccc(O)c1 [PC-181]	67.1
CCOc1ccc(NC(C)=O)cc1 [PC-150]	71.8
Cc1nnc(NS(=O)(=O)c2ccc(N)cc2)s1 [PC-203]	89.6

Same assay, conditions: Supplementary Table 2, moderately active compounds (25 - 60% remaining), primary screen at 50 µM

SMILES	% left (remaining SFV replication) [%]
O=C(c1ccccc1)c1cc2c(ccc3ccccc32)oc1=O [NC-006]	39.9
O=C(O)c1ccc(O)cc1O [NC-055]	32.1
CC(Cc1ccc(O)c(O)c1)C(C)Cc1ccc(O)c(O)c1 (stereo not shown) [NC-071]	35.6
CNC1=Nc2ccc(Cl)cc2C(c2ccccc2)=[N+]([O-])C1 [PC-041]	54.3
CC(=O)Oc1c(C)cc(OCC(O)CNC(C)C)c(C)c1C (stereo not shown) [PC-120]	46.7
COc1cc(C(=O)O)cc(OC)c1OC [NC-102]	34.1
COc1cc(C=O)ccc1O [NC-106]	47.9
CCCCNc1ccc(C(=O)OCCN(C)C)cc1.Cl [PC-032]	45.2

Same assay, conditions: primary screening of chemical libraries; compounds tested at 50 µM

SMILES	SFV replication % left [%]
COc1ccc2ccc(=O)oc2c1O [NC-113]	105.6
COc1cc(OC)c2ccc(=O)oc2c1 [NC-128]	67.4
Cc1cccc(Nc2ccccc2C(=O)O)c1C [PC-108]	103.5
Cc1cc(=O)oc2cc(O)ccc12 [NC-108]	90.9
Cc1cc(=O)oc2cc(O)ccc12 [NC-065]	12.0
Cc1c(N)c(=O)n(-c2ccccc2)n1C [PC-011]	51.6
O=C(c1ccccc1)c1cc2c(ccc3ccccc32)oc1=O [NC-006]	39.9
CCOC(=O)c1ccc(O)cc1 [PC-075]	127.8
O=c1cc(-c2ccc(O)c(O)c2)oc2cc(O)cc(O)c12 [NC-061]	71.3
COc1ccc(OC)c(C(O)C(C)N)c1.Cl (stereo not shown) [PC-116]	98.4
CCC1(CC)C(=O)NC(=O)NC1=O [PC-020]	64.7
CC(CN1c2ccccc2Sc2ccccc21)[N+](C)(C)CCO.[Cl-] (stereo not shown) [PC-096]	102.2
Oc1cc(O)c2cc(O)c(-c3ccc(O)c(O)c3)[o+]c2c1.[Cl-] [NC-019]	24.5
O=C(O)c1ccc(O)cc1O [NC-055]	32.1
C[C@]12CC[C@H](O)C[C@H]1CC[C@@H]1[C@@H]2CC[C@]2(C)[C@@H](C3=CC(=O)OC3)[C@@H](O)C[C@]12O [NC-043]	102.7
CC(Cc1ccc(O)c(O)c1)C(C)Cc1ccc(O)c(O)c1 (stereo not shown) [NC-071]	35.6
CCCCNC(=O)NS(=O)(=O)c1ccc(N)cc1 [PC-033]	83.9
COC(=O)c1cc(O)c(O)c(O)c1 [NC-064]	67.8
O=C1Nc2ccc(Cl)cc2C(c2ccccc2)=NC1O (stereo not shown) [PC-141]	79.1
O[C@H]1[C@H](O)[C@@H](O)[C@H](O)[C@@H](O)[C@H]1O [PC-100]	106.0
O=C(O)Cc1ccccc1O [NC-050]	7.3
Cc1ncc([N+](=O)[O-])n1CCO [PC-121]	69.2
CNC1=Nc2ccc(Cl)cc2C(c2ccccc2)=[N+]([O-])C1 [PC-041]	54.3
O=C1c2c(O)cccc2Cc2cccc(O)c21 [PC-066]	27.2
COc1ccc([C@@H]2CC(=O)c3c(O)cc(O[C@@H]4O[C@H](CO[C@@H]5O[C@@H](C)[C@H](O)[C@@H](O)[C@H]5O)[C@@H](O)[C@H](O)[C@H]4O)cc3O2)cc1O [NC-046]	77.7
CC(C)(C)NCC(O)COc1cccc2c1CCC(=O)N2.Cl (stereo not shown) [PC-038]	67.2

SMILES	SFV replication % left [%]
CCCCCCCCOC(=O)c1cc(O)c(O)c(O)c1 [NC-072]	134.4
CCCCC1C(=O)N(c2ccccc2)N(c2ccc(O)cc2)C1=O (stereo not shown) [PC-143]	84.8
CC(C)NCC(O)c1ccc(O)c(O)c1.CC(C)NCC(O)c1ccc(O)c(O)c1.O.O.O=S(=O)(O)O (stereo not shown) [PC-102]	110.9
CC(=O)Oc1c(C)cc(OCC(O)CNC(C)C)c(C)c1C (stereo not shown) [PC-120]	46.2
O=C(O)c1cc(O)c(O)c(O)c1 [NC-041]	148.8
Oc1cc(O)c2c(c1)O[C@H](c1ccc(O)c(O)c1)[C@H](O)[C@H]2c1c(O)cc(O)c2c1O[C@H](c1ccc(O)c(O)c1)[C@H](O)C2 [NC-075]	93.7
CC(C)NCC(O)c1ccc(Cl)c(Cl)c1.Cl (stereo not shown) [PC-062]	49.6
CC(C)OC(=O)c1cc(O)c(O)c(O)c1 [NC-054]	124.0
CCCCOC(=O)c1ccc(N)cc1 [PC-031]	76.6
O=C(CO)c1ccccc1 [NC-047]	129.7
CC(C)NCC(O)COc1ccc(CC(N)=O)cc1 (stereo not shown) [PC-017]	44.2
COc1cc(C(=O)O)cc(OC)c1OC [NC-102]	34.0
Nc1nc2ncc(CNc3ccc(C(=O)N[C@@H](CCC(=O)O)C(=O)O)cc3)nc2c(=O)[nH]1 [PC-085]	100.0
O=c1cc(-c2ccccc2)oc2c1ccc1ccccc12 [NC-002]	14.6
O=c1cc(-c2ccccc2)oc2ccccc12 [NC-040]	52.2
CCn1cc(C(=O)O)c(=O)c2ccc(C)nc21 [PC-125]	80.4
O=C1c2c(O)cc(O)cc2O[C@H](c2ccc(O)c(O)c2)[C@H]1O [NC-100]	93.7
Nc1ccc(C(=O)O)cc1 [PC-010]	56.5
CC(C)(C)NCC(O)COc1cccc2c1CC(O)C(O)C2 (stereo not shown) [PC-123]	60.5
O.O.O=c1c(O)c(-c2ccc(O)cc2O)oc2cc(O)cc(O)c12 [NC-067]	82.9
CN1CCC(CN2c3ccccc3Sc3ccccc32)C1 (stereo not shown) [PC-115]	22.5
NS(=O)(=O)c1cc2c(cc1Cl)NCNS2(=O)=O [PC-091]	121.2
COc1ccc2oc(=O)cc(C)c2c1 [NC-119]	66.6
COc1cc(/C=C/C(=O)O)cc(OC)c1O [NC-095]	22.0
COc1ccc(-c2cc(=O)c3c(O)cc(O)cc3o2)cc1 [NC-001]	78.1
O=C(O)c1ccccc1O [NC-092]	69.1

SMILES	SFV replication % left [%]
CN(C)CCOC(c1ccccc1)c1ccccc1.Cl [PC-067]	41.0
O=C(O[C@@H]1Cc2c(O)cc(O)cc2O[C@@H]1c1cc(O)c(O)c(O)c1)c1cc(O)c(O)c(O)c1 [NC-037]	155.3
COc1cc(C2Oc3cc([C@H]4Oc5cc(O)cc(O)c5C(=O)[C@@H]4O)ccc3OC2CO)ccc1O (stereo partly shown) [NC-093]	22.4
O=C(O[C@@H]1Cc2c(O)cc(O)cc2O[C@@H]1c1ccc(O)c(O)c1)c1cc(O)c(O)c(O)c1 [NC-035]	94.8
CCCCCCCCCCCCCCCC[N+](C)(C)C.[Br-] [PC-039]	75.0
COc1cc(C=O)ccc1O [NC-106]	47.9
CC(=O)c1cccc(O)c1 [NC-048]	125.8
O=C1NC2NC(=O)NC2N1 (stereo not shown) [PC-004]	55.2
O=C(O)Cc1ccc(O)cc1 [NC-052]	103.6
CCCCC1(CC)C(=O)NC(=O)NC1=O [PC-029]	45.2
O=C(O)c1cc(O)ccc1O [NC-024]	127.8
N/C(CC(O)COc1cccc2ccccc12)=N/O (stereo not shown) [PC-124]	20.8
CCCCNc1ccc(C(=O)OCCN(C)C)cc1.Cl [PC-032]	45.4
O=C(O)c1cccc(O)c1O [NC-023]	93.1
CN1C(=O)NC(=O)C(C)(C2=CCCCC2)C1=O (stereo not shown) [PC-087]	121.3
Cc1c(N(C)CS(=O)(=O)[O-])c(=O)n(-c2ccccc2)n1C.[Na+] [PC-069]	86.0
CN1C(=O)CN=C(c2ccc(Cl)cc2)c2cc(Cl)ccc21 [PC-043]	64.0
O=c1c(O)c(-c2ccc(O)c(O)c2)oc2c(O[C@@H]3O[C@H](CO)[C@@H](O)[C@H](O)[C@H]3O)c(O)cc(O)c12 [NC-044]	105.8
COC(=O)c1ccc(O)cc1 [PC-119]	69.3
CCCCCCCCCCCCOC(=O)c1cc(O)c(O)c(O)c1 [NC-059]	12.3
CCC(C)NCC(O)c1ccc2c(c1)CCCC2 (stereo not shown) [PC-030]	73.1
O=c1c(O)c(-c2ccc(O)c(O)c2)oc2cc(O)cc(O)c12 [NC-080]	125.8
O=C(N[C@H](CO)[C@H](O)c1ccc([N+](=O)[O-])cc1)C(Cl)Cl [PC-040]	73.8
Oc1ccccc1O [NC-012]	58.4
